What all share (type): cell-based
For test [1], the system named is MAPK8 (mitogen-activated protein kinase 8). Put plainly: Gene expression experiment (real-time PCR) in SH-SY5Y cells: MAPK8. Particulars: 24 h. On the procedure: (§1) SH-SY5Y cells were seeded in 100 mm-cell dishes (BD Biocoat) at concentrations of 3.7×10^5 cells/mL (10 mL/dish) and cultured for 24 h at 37° C. and 5% CO2. Culture medium used was F12/DMEM (Gibco) supplemented with 1% non-essential amino acids (Gibco), 15% FBS (Bio West), and 1% penicillin/streptomycin (Lonza). After 24 h, the culture medium was completely removed with an aspirator, 10 mL of culture medium Opti-MEM(Gibco) was added to each dish, and the cells were cultured for 24 h at 37° C. and 5% CO2. RNA was extracted from the culture cells and analyzed for the expression of genes described below by real-time PCR (designated as “Control” in FIGS. 2 to 8).
(§2) RNA extraction was performed using ISOGEN Reagent (Nippon Gene Co., Ltd.) in accordance with the protocol recommended by Nippo n Gene Co., Ltd. (see URL: https://www.nippongene.com/siyaku/product/extraction/tds/tds_isogen-rna-dna-protein.pdf). Real-time PCR was performed according to the protocol recommended by Thermo Fisher Scientific using a reagent kit for TaqMan Real-Time PCR (Thermo Fisher Scientific) (see URL: https://assets.thermofisher.com/TFS-Assets/LSG/manuals/4304449_TaqManPCRMM_UG.pdf).
(§3) 24 h after seeding 100 mm-cell dishes (BD Biocoat) with SH-SY5Y cells, the culture medium was completely removed with an aspirator, amyloid β protein (Beta-Amyloid 1-42, AnaSpec) was mixed with Opti-MEM (Gibco) so that the final concentration was 5 μM, 10 mL of the mixture was added to each dish, the cells were cultured for 24 h at 37° C. and 5% CO2, and RNA was extracted. Except for performing the procedure described above, gene expression was analyzed as described above (designated as “Aβ” in FIGS. 2 to 8).
(§4) 24 h after seeding 100 mm-cell dishes (BD Biocoat) with SH-SY5Y cells, the culture medium was completely removed with an aspirator, Sample 1 was mixed with culture medium Opti-MEM(Gibco) so that the final concentration was 12.56 μM, 9,990 μL of the mixture was added to each dish and allowed to stand for 10 min, amyloid β protein (Beta-Amyloid 1-42, AnaSpec) was mixed with Opti-MEM (Gibco) so that the final concentration was […], 10 μL of the mixture was added to each well, the cells were cultured for 24 h at 37° C. and 5% CO2, and RNA was extracted. Except for performing the procedure described above, Gene expression was analyzed as described above (designated as “Aβ+M3,5G” in FIGS. 2 to 8).
(§5) Except that Sample 2 was used instead of Sample 1, gene expression was analyzed as described above (designated as “Aβ+M” in FIGS. 2 to 8).
(§6) Except that Sample 3 was used instead of Sample 1, gene expression was analyzed as described above (designated as “Aβ+M3G” in FIGS. 2 to 8). […]
(In general: Quantitative PCR measures a nucleic acid by following its amplification.)

The test system of test [2] is AKT1 (AKT serine/threonine kinase 1). The test can be described thus: Gene expression experiment (real-time PCR) in SH-SY5Y cells: AKT1. To be noted: for expression of AKT1: 24 h. As to the method: as §1, §2, §3, §4, §5
(§7) Except that Sample 3 was used instead of Sample 1, gene expression was analyzed as described above (designated as “Aβ+M3G” in FIGS. 2 to 8).
(§8) 24 h after seeding 100 mm-cell dishes (BD Biocoat) with SH-SY5Y cells, the culture medium was completely removed with an aspirator, 10 mL of culture medium Opti-MEM(Gibco) mixed with Sample 1 was added to each dish, the cells were cultured for 24 h at 37° C. and 5% CO2, and RNA was extracted. Except for performing the procedure described above, gene expression was analyzed as described above (designated as “M3,5G” in FIGS. 2 to 8).

Test [3] relates to PARP1 (poly(ADP-ribose) polymerase 1). The test can be described thus: Gene expression experiment (real-time PCR) in SH-SY5Y cells: PARP1. To be noted: 24 h. On the procedure:
as §1, §2, §3, §4, §5, §6

Test [4] relates to CASP3 (caspase-3). Put plainly: Gene expression experiment (real-time PCR) in SH-SY5Y cells: CASP3. Particulars: for expression of CASP3: 24 h. As to the method: as §1, §2, §3, §4, §5, §7, §8
Where [5] appears, read: 12.56 μM, amyloid β protein-treated cells, compared to “Aβ”.
Setting [6] is: 12.56 μM, amyloid β protein-treated cells, compared to “Control”.
Setting [7] is: Sample 1 alone, no amyloid β, compared to “Control”.
The mark [8] stands for this setting: amyloid β protein-treated cells, 12.56 μM, ranked against malvidin and malvidin-3-glucoside.

Turning to `COc1cc(-c2[o+]c3cc(O)cc(OC4OC(CO)C(O)C(O)C4O)c3cc2OC2OC(CO)C(O)C(O)C2O)cc(OC)c1O` (stereo not shown) [M3,5G, Malvidin-3,5-diglucoside chloride], the entries for the “expression of MAPK8” value in test [1] (setting [5]), in test [1] (setting [6]) and in test [1] (setting [7]) were “significantly high”, “significantly high” and “significantly increased”, respectively. Besides, the “expression of AKT1” value in test [2] (setting [5]) is “significantly high”; in test [2] (setting [6]) it was “significantly high”; in test [2] (setting [7]), “significantly increased”. Besides, in test [2] (setting [8]), the “activity in increasing the expression of AKT1” value is recorded as “highest activity”. The “expression of PARP1” value in test [3] (setting [5]) is “significantly high”; in test [3] (setting [7]) it was “comparable”. Further, the results for the “expression of CASP3” value in test [4] (setting [5]), in test [4] (setting [6]) and in test [4] (setting [7]) were “significantly low”, “significantly low” and “significantly decreased”, respectively. Besides, in test [4] (setting [8]), the “activity in decreasing the expression of CASP3” value is given as “highest activity”.

Source of the values: patent US20220241308A1, “NEURONAL FUNCTION MODULATING AGENT” (University of Tsukuba, priority 2019, published 2022).
